Assay results as given in patent publication US20230023092A1, “TREATMENT OF DEPRESSION AND OTHER VARIOUS DISORDERS WITH PSILOCYBIN” (COMPASS […], priority 2019, published 2023).

System: healthy subjects
Assay: Phase 1 study: adverse events (TEAEs, MedDRA coded)
Assay type: in vivo, human
Conditions: 25 mg oral
Description: A Phase 1 randomized, double-blind, placebo-controlled study to evaluate the effect of psilocybin on cognitive and emotional processing as compared to placebo in healthy volunteers was conducted. The study investigated the short-term (Day 7) and long-term (Day 28) effects of moderate (10 mg) and high doses (25 mg) of psilocybin on key domains of cognition, such as episodic memory, attention, working and spatial memory, social cognition and elements of executive function, including cognitive flexibility.
Each subject was assigned 1 treatment bottle containing 5 capsules packaged in a double-blind fashion, depending on the randomized treatment arm, the bottle contained one of the following: • a. Psilocybin 10 mg: 2×5-mg oral psilocybin capsules plus 3×placebo capsules • b. Psilocybin 25 mg: 5×5-mg oral psilocybin capsules • c. Placebo: 5×placebo capsules
Each 5-mg oral psilocybin capsules comprised 5 mg crystalline psilocybin in the form or Polymorph A, 12.5 mg of SMCC 50, 79.5 mg of SMCC 90, 1 mg sodium starch glycolate, 1 mg colloidal silicon dioxide, and 1 mg sodium stearyl fumarate
Adverse events: Throughout the course of the study, all AEs were monitored and recorded. Each AE was classified according to the following criteria: • i. […] Moderate: The AE produces some impairment of functioning, but is not hazardous to the subject's health. • iii. Severe: The AE produces significant impairment of functioning or incapacitation and is a definite hazard to the subject's health.
Visit 3 (V3): Drug Administration (Day 0): The subject was asked to eat a light breakfast at least two hours prior to coming to the clinic for study drug administration. On Day 0 (V3), the subject underwent the SSTS, had vital signs obtained, medications reviewed, AEs recorded and eligibility reviewed prior to being randomized to study drug. The study drug was administered to up to six subjects simultaneously in individual beds separated by a curtain. The subject was invited to put on eyeshades and headphones, lie down and listen to calming music for the rest of the session (six hours). The subject was supported 1:1 with a chaperone and supervised by the study psychiatrist and lead therapist.
During administration of psilocybin, each subject received one-on-one support from a trained assisting therapist and each dosing session was supervised by a study psychiatrist and a lead therapist. The study drug was administered simultaneously to up to six participants as a single 5-capsule oral dose (10 mg psilocybin: 2×5-mg psilocybin capsules plus 3×placebo capsules; 25 mg psilocybin: 5×5-mg psilocybin capsules; placebo: 5×placebo capsules). Twenty-five dosing sessions were completed, with up to six participants dosed simultaneously per session. Each session lasted approximately 6 to 8 hours with subjects encouraged to relax and engage in introspection for the duration. After the acute effects of the study drug had subsided, subjects were discharged.

CN(C)CCc1c[nH]c2cccc(OP(=O)(O)O)c12 [Psilocybin, psilocybin]
Affect lability, N (%): 3 (10.0)
Affect lability, worst severity Mild, Events: 2
Affect lability, worst severity Mild, N (%): 2 (6.7)
Affect lability, worst severity Moderate, Events: 1
Affect lability, worst severity Moderate, N (%): 1 (3.3)
Affect lability, worst severity Severe, Events: 0
Affect lability, worst severity Severe, N (%): 0
Any Selected TEAE, Events: 106
Any Selected TEAE, N (%): 27 (90.0)
Any TEAE leading to death, Events: 0
Any TEAE leading to death, N (%): 0
Any TEAE leading to study discontinuation, Events: 0
Any TEAE leading to study discontinuation, N (%): 0
Any TEAE related to study treatment, Events: 208
Any TEAE related to study treatment, N (%): 29 (96.7)
Any TEAE, Events: 217
Any TEAE, N (%): 29 (96.7)
Any TEAE, worst severity Mild, Events: 14
Any TEAE, worst severity Mild, N (%): 3 (10.0)
Any TEAE, worst severity Moderate, Events: 52
Any TEAE, worst severity Moderate, N (%): 16 (53.3)
Any TEAE, worst severity Severe, Events: 29
Any TEAE, worst severity Severe, N (%): 10 (33.3)
Any serious TEAE related to study treatment, Events: 0
Any serious TEAE related to study treatment, N (%): 0
Any serious TEAE, Events: 0
Any serious TEAE, N (%): 0
Any severe TEAE, Events: 29
Any severe TEAE, N (%): 10 (33.3)
Change in sustained attention, Events: 0
Change in sustained attention, N (%): 0
Depressed mood, Events: 2
Depressed mood, N (%): 2 (6.7)
Dissociative identity disorder, Events: 2
Dissociative identity disorder, N (%): 2 (6.7)
Emotional disorder, Events: 6
Emotional disorder, N (%): 5 (16.7)
Emotional disorder, worst severity Mild, Events: 1
Emotional disorder, worst severity Mild, N (%): 1 (3.3)
Emotional disorder, worst severity Moderate, Events: 5
Emotional disorder, worst severity Moderate, N (%): 4 (13.3)
Emotional disorder, worst severity Severe, Events: 0
Emotional disorder, worst severity Severe, N (%): 0
Euphoric mood, Events: 8
Euphoric mood, N (%): 7 (23.3)
Euphoric mood, worst severity Mild, Events: 3
Euphoric mood, worst severity Mild, N (%): 3 (10.0)
Euphoric mood, worst severity Moderate, Events: 4
Euphoric mood, worst severity Moderate, N (%): 4 (13.3)
Euphoric mood, worst severity Severe, Events: 0
Euphoric mood, worst severity Severe, N (%): 0
Fatigue, Events: 8
Fatigue, N (%): 8 (26.7)
Fatigue, worst severity Mild, Events: 3
Fatigue, worst severity Mild, N (%): 3 (10.0)
Fatigue, worst severity Moderate, Events: 5
Fatigue, worst severity Moderate, N (%): 5 (16.7)
Fatigue, worst severity Severe, Events: 0
Fatigue, worst severity Severe, N (%): 0
Feeling abnormal, Events: 0
Feeling abnormal, N (%): 0
Feeling abnormal, worst severity Mild, Events: 0
Feeling abnormal, worst severity Mild, N (%): 0
Feeling abnormal, worst severity Moderate, Events: 0
Feeling abnormal, worst severity Moderate, N (%): 0
Feeling abnormal, worst severity Severe, Events: 0
Feeling abnormal, worst severity Severe, N (%): 0
Feeling of relaxation, Events: 1
Feeling of relaxation, N (%): 1 (3.3)
Gastrointestinal disorders, Events: 5
Gastrointestinal disorders, N (%): 5 (16.7)
Gastrointestinal disorders, worst severity Mild, Events: 4
Gastrointestinal disorders, worst severity Mild, N (%): 4 (13.3)
Gastrointestinal disorders, worst severity Moderate, Events: 1
Gastrointestinal disorders, worst severity Moderate, N (%): 1 (3.3)
Gastrointestinal disorders, worst severity Severe, Events: 0
Gastrointestinal disorders, worst severity Severe, N (%): 0
General disorders and administration site conditions, Events: 18
General disorders and administration site conditions, N (%): 15 (50.0)
General disorders and administration site conditions, worst severity Mild, Events: 8
General disorders and administration site conditions, worst severity Mild, N (%): 8 (26.7)
General disorders and administration site conditions, worst severity Moderate, Events: 7
General disorders and administration site conditions, worst severity Moderate, N (%): 6 (20.0)
General disorders and administration site conditions, worst severity Severe, Events: 1
General disorders and administration site conditions, worst severity Severe, N (%): 1 (3.3)
Hallucination, Events: 2
Hallucination, N (%): 2 (6.7)
Hallucination, auditory, Events: 4
Hallucination, auditory, N (%): 4 (13.3)
Hallucination, auditory, worst severity Mild, Events: 1
Hallucination, auditory, worst severity Mild, N (%): 1 (3.3)
Hallucination, auditory, worst severity Moderate, Events: 3
Hallucination, auditory, worst severity Moderate, N (%): 3 (10.0)
Hallucination, auditory, worst severity Severe, Events: 0
Hallucination, auditory, worst severity Severe, N (%): 0
Hallucination, gustatory, Events: 0
Hallucination, gustatory, N (%): 0
Hallucination, olfactory, Events: 1
Hallucination, olfactory, N (%): 1 (3.3)
Hallucination, tactile, Events: 4
Hallucination, tactile, N (%): 4 (13.3)
Hallucination, visual, Events: 22
Hallucination, visual, N (%): 21 (70.0)
Hallucination, visual, worst severity Mild, Events: 3
Hallucination, visual, worst severity Mild, N (%): 3 (10.0)
Hallucination, visual, worst severity Moderate, Events: 13
Hallucination, visual, worst severity Moderate, N (%): 13 (43.3)
Hallucination, visual, worst severity Severe, Events: 5
Hallucination, visual, worst severity Severe, N (%): 5 (16.7)
Hallucination, worst severity Mild, Events: 0
Hallucination, worst severity Mild, N (%): 0
Hallucination, worst severity Moderate, Events: 2
Hallucination, worst severity Moderate, N (%): 2 (6.7)
Hallucination, worst severity Severe, Events: 0
Hallucination, worst severity Severe, N (%): 0
Headache, Events: 16
Headache, N (%): 15 (50.0)
Headache, worst severity Mild, Events: 10
Headache, worst severity Mild, N (%): 10 (33.3)
Headache, worst severity Moderate, Events: 5
Headache, worst severity Moderate, N (%): 5 (16.7)
Headache, worst severity Severe, Events: 0
Headache, worst severity Severe, N (%): 0
Hypoaesthesia, Events: 4
Hypoaesthesia, N (%): 3 (10.0)
Hypoaesthesia, worst severity Mild, Events: 4
Hypoaesthesia, worst severity Mild, N (%): 3 (10.0)
Hypoaesthesia, worst severity Moderate, Events: 0
Hypoaesthesia, worst severity Moderate, N (%): 0
Hypoaesthesia, worst severity Severe, Events: 0
Hypoaesthesia, worst severity Severe, N (%): 0
